# Measurements reported in PubChem BioAssay AID336 (DTP/NCI, 2004).
# Where “and” joins values, the source holds several entries; their conditions need not be identical. Identical values can stand only once. Toxic doses and inconclusive results are not listed.
# Tested on: BDF1 mice, P388/VCR leukemia ip, median survival T/C
# Test: NCI In Vivo Anticancer Drug Screen. Data for tumor model P388 Leukemia resistant to Vincristine; NSC 67574 (intraperitoneal) in B6D2F1 (BDF1) mice
# Conditions: endpoint: median survival time, higher = longer survival
# Description: The antitumor activity of compounds was measured in mice bearing transplantable tumors. Survival or tumor size were measured and the results are expressed as the measurement made in the treated group (T) divided by the measurement made in the vehicle treated control group (C). The tumor model used in this assay is P388 Leukemia resistant to Vincristine; NSC 67574 (intraperitoneal) in B6D2F1 (BDF1) mice
# [1] = dose: 3.13 mg/kg/injection, schedule: Q01DX010 (ip), vehicle: saline
structure (smiles),measurement,setting,value
CC[C@H]1CN2CCc3cc(OC)c(OC)cc3[C@@H]2C[C@@H]1C[C@@H]1c2cc(OC)c(OC)cc2CCN1CCN(CCCl)CCCl,T/C,"dose: 6.48 mg/kg/injection, schedule: Q04DX003 (ip), vehicle: saline with Tween-80",107 % of control
same,T/C,"dose: 10.8 mg/kg/injection, schedule: Q04DX003 (ip), vehicle: saline with Tween-80",111 % of control
Cn1c(N)nc2nc[nH]c2c1=S,T/C,"dose: 10.0 mg/kg/injection, schedule: Q01DX010 (ip), vehicle: saline",92 % of control and 100 % of control
same,T/C,"dose: 20.0 mg/kg/injection, schedule: Q01DX010 (ip), vehicle: saline",96 % of control and 107 % of control
same,T/C,"dose: 40.0 mg/kg/injection, schedule: Q01DX010 (ip), vehicle: saline",100 % of control and 123 % of control
same,T/C,"dose: 80.0 mg/kg/injection, schedule: Q01DX010 (ip), vehicle: saline",96 % of control
[I][Hg][CH2]C1COC([CH2][Hg][I])CO1 (stereo not drawn),T/C,"dose: 0.78 mg/kg/injection, schedule: Q01DX010 (ip), vehicle: saline",88 % of control
same,T/C,"dose: 1.56 mg/kg/injection, schedule: Q01DX010 (ip), vehicle: saline",103 % of control
same,T/C,[1],111 % of control
C1CN1c1nc(N2CC2)nc(N2CC2)n1,T/C,"dose: 0.13 mg/kg/injection, schedule: Q01DX010 (ip), vehicle: saline",88 % of control and 108 % of control
same,T/C,"dose: 0.5 mg/kg/injection, schedule: Q01DX010 (ip), vehicle: saline",152 % of control and 228 % of control
N#[N+]c1cnc([O-])[nH]c1=O,T/C,"dose: 5.0 mg/kg/injection, schedule: Q01DX010 (ip), vehicle: saline",156 % of control
S=P(N1CC1)(N1CC1)N1CC1,T/C,"dose: 0.75 mg/kg/injection, schedule: Q01DX010 (ip), vehicle: saline",91 % of control and 95 % of control
same,T/C,"dose: 1.5 mg/kg/injection, schedule: Q01DX010 (ip), vehicle: saline",91 % of control
same,T/C,"dose: 3.0 mg/kg/injection, schedule: Q01DX010 (ip), vehicle: saline",95 % of control
same,T/C,"dose: 6.0 mg/kg/injection, schedule: Q01DX010 (ip), vehicle: saline",91 % of control and 104 % of control
N=[N+]=CC(=O)OCC(N)C(=O)O (stereo not drawn),T/C,[1],152 % of control
same,T/C,"dose: 6.25 mg/kg/injection, schedule: Q01DX010 (ip), vehicle: saline",165 % of control
C[C@]12C=CC(=O)C=C1CC[C@@H]1[C@@H]2[C@@H](O)C[C@@]2(C)[C@H]1CC[C@]2(O)C(=O)CO,T/C,"dose: 12.5 mg/kg/injection, schedule: Q01DX010 (sc), vehicle: steriod suspending solution",107 % of control and 116 % of control
same,T/C,"dose: 25.0 mg/kg/injection, schedule: Q01DX010 (sc), vehicle: steriod suspending solution",103 % of control and 116 % of control
same,T/C,"dose: 50.0 mg/kg/injection, schedule: Q01DX010 (sc), vehicle: steriod suspending solution",103 % of control and 120 % of control
same,T/C,"dose: 100.0 mg/kg/injection, schedule: Q01DX010 (sc), vehicle: steriod suspending solution",108 % of control and 111 % of control
COS(C)(=O)=O,T/C,"dose: 12.5 mg/kg/injection, schedule: Q01DX010 (ip), vehicle: saline",123 % of control
same,T/C,"dose: 25.0 mg/kg/injection, schedule: Q01DX010 (ip), vehicle: saline",103 % of control
Cc1c2ccncc2c(C)c2c1[nH]c1ccccc12,T/C,"dose: 13.0 mg/kg/injection, schedule: Q04DX003 (ip), vehicle: water",150 % of control
same,T/C,"dose: 21.6 mg/kg/injection, schedule: Q04DX003 (ip), vehicle: water",210 % of control
same,T/C,"dose: 24.0 mg/kg/injection, schedule: Q04DX003 (ip), vehicle: clinical formulation",158 % of control
same,T/C,"dose: 36.0 mg/kg/injection, schedule: Q04DX003 (ip), vehicle: water",253 % of control
same,T/C,"dose: 40.0 mg/kg/injection, schedule: Q04DX003 (ip), vehicle: clinical formulation",203 % of control
same,T/C,"dose: 60.0 mg/kg/injection, schedule: Q04DX003 (ip), vehicle: water",93 % of control
same,T/C,"dose: 66.7 mg/kg/injection, schedule: Q04DX003 (ip), vehicle: clinical formulation",98 % of control
O=C(Nc1ccc(C2=NCCN2)cc1)c1ccc(C(=O)Nc2ccc(C3=NCCN3)cc2)cc1,T/C,"dose: 112.0 mg/kg/injection, schedule: Q01DX010 (ip), vehicle: saline",156 % of control
same,T/C,"dose: 167.0 mg/kg/injection, schedule: Q01DX010 (ip), vehicle: saline",173 % of control
same,T/C,"dose: 250.0 mg/kg/injection, schedule: Q01DX010 (ip), vehicle: saline",178 % of control
CO[C@H](C(=O)[C@@H](O)[C@@H](C)O)[C@@H]1Cc2cc3cc(OC4CC(OC5CC(O)C(O)C(C)O5)C(O)C(C)O4)c(C)c(O)c3c(O)c2C(=O)[C@H]1OC1CC(OC2CC(OC3CC(C)(O)C(O)C(C)O3)C(O)C(C)O2)C(O)C(C)O1 (stereo partly drawn),T/C,"dose: 216.0 micrograms/kg/injection, schedule: Q01DX005 (ip), vehicle: water",97 % of control
same,T/C,"dose: 360.0 micrograms/kg/injection, schedule: Q01DX005 (ip), vehicle: water",100 % of control
same,T/C,"dose: 600.0 micrograms/kg/injection, schedule: Q01DX005 (ip), vehicle: water",95 % of control
same,T/C,"dose: 1000.0 micrograms/kg/injection, schedule: Q01DX005 (ip), vehicle: water",95 % of control
